Measured values published in article PMC9920413, “New Bicyclic Pyridine-Based Hybrids Linked to the 1,2,3-Triazole Unit: Synthesis via Click Reaction and Evaluation of Neurotropic Activity and Molecular Docking” (Molecules, 2023).

Legend:
[1] = test system: mice; test: Rotating rod test (neurotoxicity, myorelaxation); assay type: in vivo; details: i.p., myorelaxation in 50% of animals
How it was run: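 Compounds given i.p. at 50 to 500 mg/kg; mice placed on a rubber-coated rod rotating at 5 rpm, counting animals unable to stay on for 2 min. TD50 derived by the Litchfield–Wilcoxon method.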

[2] = test system: thiosemicarbazide (TSC)-induced convulsions; test: Thiosemicarbazide (TSC) seizures; assay type: in vivo, mice
How it was run: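 Mice received compounds 100 mg/kg i.p. in carboxymethylcellulose/Tween-80 suspension 45 min before thiosemicarbazide 18 mg/kg s.c. (0.5% solution). Anti-TSC activity judged by latency to onset of clonic seizures.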

[3] = test system: pentylenetetrazole (PTZ)-induced convulsions; test: Antagonism to pentylenetetrazole (PTZ) convulsions; assay type: in vivo
How it was run: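 Outbred mice (18–22 g), six per dose, given compound or emulsifier vehicle; clonic seizures and convulsions after PTZ recorded over 1 h observation. ED50 derived by the Litchfield–Wilcoxon method.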

[4] = in vivo; details: outbred, mouse, in vivo; mice, dead animals after 24 h
How it was run: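 Compounds are given intraperitoneally to mice at 50 to 500 mg/kg, with reference drugs at anticonvulsant doses. Muscle relaxation is scored on a rod rotating at 5 rpm as the number of animals unable to stay on for 2 min. ED50, TD50 and LD50 come from the Litchfield and Wilcoxon method.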

[5] = test system: mice; test: Forced swimming test; details: 6 min;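 further: mice made to swim in a water-filled glass vessel under natural light, with durations of active swimming and immobility recorded across the 6 min session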
Description: Forced swimming test. To assess “despair and depression”, the “compelling swimming” model was used. Experimental animals were forced to swim in a glass container (height 22 cm, diameter 14 cm), filled 1/3 with water. […] The latent period of immobilization, the total duration of active swimming and immobilization are fixed at 6 min (the experiments were conducted under natural light).

[6] = test system: mouse; test: Elevated plus maze (EPM) test; assay type: in vivo; details: 5 min
How it was run: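 Mice dosed intraperitoneally with compound or reference before testing, controls receiving emulsifier. Anxiolytic effect scored as increased entries into and time in open arms without raised total motor activity; closed-arm time and center-entry attempts also recorded; significance at p < 0.05.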

[7] = test system: maximal electroshock-induced seizures; test: Maximal electroshock-induced seizures (MES); assay type: in vivo; details: mice, MES 50 mA, 0.2 s
Description: The study of the anticonvulsant activity of hybrids 7a–u was assessed by evaluating the antagonism to pentylenetetrazole (PTZ), thiosemicarbazide convulsive seizures, and maximal electroshock-induced seizures (MES). The PTZ-induced test is considered an experimental model for the clonic component of epilepsy seizures and the prognostic anxiolytic activity of the compounds. PTZ is a common convulsive agent used in animal models to investigate the mechanisms of seizures. The model of thiosemicarbazide (TSC) seizures (affecting the exchange of GABA) causes clonic seizures similar to pentylenetetrazole ones. The MES test is used as an animal model for the generalization of tonic seizures in epilepsy. The neurotoxicity and side effects of the compounds (movement coordination disorder, myorelaxation, and ataxia) were also studied on mice with the “rotating rod”[29] test.
The anticonvulsant effect of the newly synthesized compounds was investigated by tests comprising pentylenetetrazole, thiosemicarbazide convulsions, and maximal electroshock (MES). Outbred mice (weight 18–22 g) were used for the study. […] Seizures and clonic convulsions were recorded. […]
The MES test is used as an animal model for the generalized tonic seizures of epilepsy. […] The anticonvulsant properties of compounds were assessed by their prevention of the tonic-extensor phase of convulsions.

[8] = test system: rats; test: Open field test; assay type: in vivo
How it was run: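 Rats observed for 5 min in a modified open field whose floor is divided into squares with holes, in daytime under natural light. Horizontal movements, rearing and hole sniffing were counted; eight animals per compound, control and reference drug.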

[9] = test system: rats; test: Electroshock retrograde amnesia, conditioned response of passive avoidance (CRPA); assay type: in vivo
How it was run: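 Rats trained in light/dark passive avoidance with a single 0.4 mA foot shock in the dark compartment, then given maximal electroconvulsive shock (50 Hz, 0.2 s, corneal) immediately after to induce amnesia. Retention tested 24 h later; antiamnesic effect read as increased time in the light compartment versus controls.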

[10] = Mus musculus, read-out: Latency of Convulsions, Induced by TSC, I (index of latent period of TSC seizures)

CCC1(C)CC(=O)NC1=O (centres unmarked) [Ethosuximide, ethosuximide, reference compound]
TD50 [1]: 520 (413 ÷ 655) mg/kg | response vs control in vivo at 200 mg/kg [2, 10]: 170% | Latency of Convulsions, Induced by TSC, M ± M ([2]; mice, ethosuximide 200 mg/kg): 17.0 ± 1.4 min | TI ([3]; outbred, mouse, in vivo): 8.5 | LD50 at 24 h [4]: 1320 mg/kg | Total Time of Active Swimming ([5]; 200 mg/kg): 262 ± 25.0 s | Total Time of Immobilization ([5]; 200 mg/kg): 98.0 ± 9.2 s | Number of Entries into the Closed Arms ([6]; 200 mg/kg): 8.1 ± 2.5 | Time Spent in Closed Arms ([6]; 200 mg/kg): 247.2 ± 27.6 s | Time Spent in the Center ([6]; 200 mg/kg): 52.8 ± 4.7 s | anticonvulsant effect in the MES test (protection from tonic and clonic seizures) [7]: did not exhibit an anticonvulsant effect | Cells Examination, amount (absolute data during 5 min) ([8]; 200 mg/kg): 0.6 ± 0.5 | Horizontal Displacement, amount (absolute data during 5 min) ([8]; 200 mg/kg): 26.8 ± 5.51 | Vertical Displacement, amount (absolute data during 5 min) ([8]; 200 mg/kg): 5.6 ± 1.8

CN1C(=O)CN=C(c2ccccc2)c2cc(Cl)ccc21 [Diazepam, diazepam, reference compound]
response vs control in vivo at 2 mg/kg [2, 10]: 90% | Latency of Convulsions, Induced by TSC, M ± M ([2]; mice, diazepam 2 mg/kg): 9.0 ± 2.5 min | effect on the model of thiosemicarbazide (TSC) seizures, in words ([2]; mice, diazepam 2 mg/kg): not effective | The Time Spent in the Light Chamber When Playing CRPA + MESH after 24 h, Second Day ([9]; 2 mg/kg, study for 5 min): 126.0 ± 6.5 s | The Time Spent in the Light Chamber during the Training of the CRPA, First Day ([9]; 2 mg/kg, study for 5 min): 187.0 ± 6.7 s | antiamnestic effect, in words ([9]; electroshock retrograde amnesia, CRPA): did not have an antiamnestic effect | ED50 ([3]; Mus musculus, read-out: ED50 (by PTZ antagonism)): 0.5 mg/kg | TI ([3]; therapeutic index TI = LD50/ED50): 360 | Total Time of Active Swimming ([5]; 2 mg/kg): 336.0 ± 8.1 s | Total Time of Immobilization ([5]; 2 mg/kg): 24.0 ± 8.2 s | Number of Entries into the Closed Arms ([6]; 2 mg/kg): 5.5 ± 1.1 | Time Spent in Closed Arms ([6]; 2 mg/kg): 257.5 ± 25.2 s | Time Spent in the Center ([6]; 2 mg/kg): 42.5 ± 3.9 s | Time Spent in the Open Arms ([6]; 2 mg/kg): 57.0 ± 4.2 s | anticonvulsant effect in the MES test (protection from tonic and clonic seizures) [7]: did not exhibit an anticonvulsant effect | Cells Examination, amount (absolute data during 5 min) ([8]; 2 mg/kg): 5.0 ±1.2 | Horizontal Displacement, amount (absolute data during 5 min) ([8]; 2 mg/kg): 33.6 ± 6.1 | Vertical Displacement, amount (absolute data during 5 min) ([8]; 2 mg/kg): 6.4 ± 1.4
